# Experimental data published in patent US20260327250A1, “3-ETHYLAMINO-INDOLE DIMERS AS SEROTONERGIC AGENTS USEFUL FOR THE TREATMENT OF DISORDERS RELATED THERETO” (MINDSET PHARMA INC., priority 2022, published 2026).
# Structures can show the parent of a compound that is named as a salt.
# Columns and labels:
# [1] = in vitro; conditions: human, plasma
# Procedure: (§1) The stock solution of test compound was prepared in DMSO and diluted at the final concentration of 200 μM.
# (§2) • a. 2.5 μL of 200 μM or 1 mM test compound or control compound solution was spiked to 497.5 μL plasma to reach a final concentration of 1 μM or 5 μM. The final concentration of organic solvents was 0.5%. The assay was performed in duplicated. • b. The reaction samples were incubated at 37° C. at approximately 60 rpm in a water bath. • c. Aliquots of 50 μL were taken from the reaction samples at 0, 30, 60, 120, 180 and 240 minutes. The reaction was stopped by the addition of 7 volumes of cold acetonitrile containing internal standards (IS: 100 nM alprazolam, 200 nM imipramine, 200 nM labetalol and 2 μM ketoprofen). • d. All samples were vortexed for 2 minutes, followed by centrifugation at 3,220 g for 30 minutes to precipitate proteins. 100 μL of the supernatant was transferred to a new plate. The supernatant was diluted with ultrapure water according to the LC-MS signal response and peak shape.
# (§3) Samples were Analyzed by LC-MS/MS. • LC system: Shimadzu • MS analysis: Triple Quad™ 6500+ from AB Inc (Canada) with an ESI interface • Column temperature: 40° C. • Column: Xselect® Hss T3 2.5μ (2.1×30 mm) coupled with preguard column • Mobile phase: 0.1% formic acid in water (A) and 0.1% formic acid in acetonitrile (B)
# (§4) All calculations were carried out using Microsoft Excel. Remaining percentages of parent compounds at each time point were estimated by determining the peak area ratios from extracted ion chromatograms.
# [2] = in vitro; conditions: mouse, plasma
# Procedure: as §1, §2, §3, §4
# [3] = in vitro; conditions: rat, plasma
# Procedure: as §1, §2, §3, §4
# [4] = Intestinal mucosal permeation using Caco-2 cell monolayers; conditions: human
# Procedure: The Caco-2 cell culture medium was prepared consisting of Dulbecco's Modified Eagle's Medium (DMEM) with high glucose and L-glutamine supplemented with 10% FBS, 1× penicillin-streptomycin mixture and 1× non-essential amino acids (NEAA). • 2. The 50 μL of culture medium was added to each well of the Transwell insert. Transwell insert was removed from reservoir and 25 mL of culture medium was added. • 3. Incubated at 37° C., 5% CO2 for 1 hour. Plates were ready for cell seeding. • 4. The cells were cultivated in T-75 flasks in a cell culture incubator set at 37° C., 5% CO2, 95% relative humidity. The cells were allowed to reach 80-90% confluence before detaching and splitting. • 5. The cultivated cells were rinsed in T-75 flasks with 5 mL PBS. Aspirated off, 1.5 mL trypsin/EDTA was added, and incubated at 37° C. for approximately 5 to 10 minutes or until the cells detach and float. Trypsin/EDTA was inactivated by adding excess serum containing medium. • 6. The cell suspension was moved to a conical tube and cells were pelleted by centrifugation at 120×g for 10 minutes. • 7. The cells were resuspended in seeding medium at a density of 6.86×10^5 cells/mL. This cell concentration can be used to seed 2.40×10^5 cells/cm^2. […] Seeding and Feeding of Caco-2 Cells in Transwell Plates • 1. 50 μL of above cell suspension was added to each well of a previously prepared Transwell plate. • 2. The plate was incubated for 14-18 days. The medium was replaced every other day, beginning no sooner than 48 hours after initial plating. • 3. The procedure for medium changes was as follows. The plate was removed from incubator and placed in hood. The medium was aspirated from reservoir and each Transwell insert. 75 μL of culture medium was added to each well of Transwell inserts and 25 mL of culture medium was added to reservoir tray. The plate was returned to incubator.
# When the 14-day Caco-2 cultured cells have reached confluence and are differentiated, they were ready to be used for transport studies. • 2. The medium was removed from reservoir and Transwell inserts. • 3. 75 μL of pre-warmed culture medium was added to each transwell insert and 25 mL of reservoir tray. • 4. The electrical resistance across the monolayer was measured using automated tissue resistance measuring system (World Precision Instruments, Sarasota, FL). • 5. The electrical resistance was recorded for each well. • 6. Once all wells were measured, the plate was returned to incubator. • 7. TEER of each well was calculated by the equation below. The TEER value of each well should be greater than 230 ohms-cm^2. TEER measurement (ohms)×Area of membrane (cm^2)=TEER value (ohm-cm^2)
# The Caco-2 plate was removed from the incubator. Next, the monolayer was washed, and the volume exchanged two times using pre-warmed HBSS (10 mM HEPES, pH 7.4). Then the plate was incubated for 30 minutes at 37° C. • 1 mM stock solutions of control compounds and test compound(s) were prepared in DMSO and diluted with HBSS (10 mM HEPES, pH 7.4) to reach the final concentration of 5 μM. The final concentration of DMSO in the incubation system was 0.5%. Digoxin, prazosin and propranolol were used as control compounds in this assay. • 3. HBSS (10 mM HEPES, pH 7.4) was removed after 30 minutes pre-incubation. • 4. The rate of drug transport was incubated in the apical to basolateral direction. 75 μL of the control compounds and test compound was added to the Transwell insert (apical compartment). The wells were filled in the receiver plate (basolateral compartment) with 235 μL of HBSS (10 mM HEPES, pH 7.4). • 5. The rate of drug transport was determined in the basolateral to apical direction. 235 μL of the control compounds and test compound(s) was added to the receiver plate wells (basolateral compartment). The Transwell insert (apical compartment) was filled with 75 μL of HBSS (10 mM HEPES, pH 7.4). • 6. […] Incubated at 37° C. for 2 hours. • 8.
# [5] = target: human 5-HT2A receptor (Homo sapiens, UniProt P28223); conditions: human versus rat receptor; cited from earlier work
# [6] = system: 5-HT2 receptor; conditions: rat brain, daily administration; cited from earlier work
# [7] = system: 5-HT1A receptors; conditions: cited from earlier work
# [8] = system: low attentive and low motivated rats; conditions: doses below the threshold for wet dog shake response; cited from earlier work
# Sequence of human 5-HT2A receptor (P28223 whole entry): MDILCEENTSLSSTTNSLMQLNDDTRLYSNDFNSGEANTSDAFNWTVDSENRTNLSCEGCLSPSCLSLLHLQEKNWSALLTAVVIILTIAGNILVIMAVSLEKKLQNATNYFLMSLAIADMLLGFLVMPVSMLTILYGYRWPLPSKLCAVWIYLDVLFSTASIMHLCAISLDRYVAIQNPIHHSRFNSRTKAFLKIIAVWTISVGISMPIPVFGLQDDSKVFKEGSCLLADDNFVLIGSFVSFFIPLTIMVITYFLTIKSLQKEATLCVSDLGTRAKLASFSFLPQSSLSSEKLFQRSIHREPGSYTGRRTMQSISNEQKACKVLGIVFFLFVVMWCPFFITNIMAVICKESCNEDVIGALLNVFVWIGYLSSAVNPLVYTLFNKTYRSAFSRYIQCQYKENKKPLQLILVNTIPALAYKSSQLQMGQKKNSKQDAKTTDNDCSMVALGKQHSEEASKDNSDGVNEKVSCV
compound,measurement,setting,value
"CN(C)CCc1c[nH]c2cccc(OC(=O)CCCC(=O)Oc3cccc4[nH]cc(CCN(C)C)c34)c12 [Compound I-24, Bis(3-(2-(dimethylamino)ethyl)-1H-indol-4-yl) glutarate]",remaining at 0.5 h,[1],0%
same,remaining at 1 h,[1],0%
same,remaining at 2 h,[1],0%
same,remaining at 3 h,[1],0%
same,remaining at 4 h,[1],0%
same,remaining at 0.5 h,[2],0%
same,remaining at 1 h,[2],0%
same,remaining at 2 h,[2],0%
same,remaining at 3 h,[2],0%
same,remaining at 4 h,[2],0%
same,remaining at 0.5 h,[3],0%
same,remaining at 1 h,[3],0%
same,remaining at 2 h,[3],0%
same,remaining at 3 h,[3],0%
same,remaining at 4 h,[3],0%
"CC(C)N(CCc1c[nH]c2cccc(OC(=O)CCCC(=O)Oc3cccc4[nH]cc(CCN(C(C)C)C(C)C)c34)c12)C(C)C [Compound I-37, Bis(3-(2-(diisopropylamino)ethyl)-1H-indol-4-yl) glutarate dihydrochloride]","Papp A→B at 2 h, 5 µM","[4]; Caco-2, pH 7.4",0.54 ×10⁻⁶ cm/s
same,"Papp B→A at 2 h, 5 µM","[4]; Caco-2, pH 7.4",11.3 ×10⁻⁶ cm/s
same,"efflux ratio at 2 h, 5 µM","[4]; Caco-2, pH 7.4",21
same,"recovery at 2 h, 5 µM","[4]; Caco-2, pH 7.4, Percentage recovery A→B, apical to basolateral",74.9%
same,"recovery at 2 h, 5 µM","[4]; Caco-2, pH 7.4, Percentage recovery B→A, basolateral to apical",107%
CN(C)CCc1c[nH]c2cccc(OP(=O)(O)O)c12 [Psilocybin],affinity for 5-HT2A receptor,[5],stronger affinity for the human 5-HT2A receptor than for the rat receptor
same,5-HT2 receptor density,[6],reduce 5-HT2 receptor density in rat brain
same,activation of 5-HT1A receptors,[7],activates 5-HT1A receptors
same,task performance,[8],improved performance on the 5-choice serial reaction time and progressive ratio tasks
